Measured values as given in PubChem BioAssay AID330 (DTP/NCI, 2004).
Inconclusive results and toxic doses are left out.

System: P388 leukemia ip, CD2F1 mice, survival T/C
Assay: NCI In Vivo Anticancer Drug Screen. Data for tumor model P388 Leukemia (intraperitoneal) in CD2F1 (CDF1) mice
Conditions: endpoint: median survival time, higher = longer survival
How it was run: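 Mice carrying the transplanted tumor received test compound or vehicle. Survival was recorded in each group, and the value is the treated-group measurement divided by that of the vehicle-treated control group.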

[1] = dose: 50.0 mg/kg/injection, schedule: Q01DX009 (ip), vehicle: saline
[2] = dose: 100.0 mg/kg/injection, schedule: Q01DX009 (ip), vehicle: saline
[3] = dose: 200.0 mg/kg/injection, schedule: Q01DX009 (ip), vehicle: saline
[4] = dose: 50.0 mg/kg/injection, schedule: Q01DX009 (ip), vehicle: saline with Tween-80
[5] = dose: 100.0 mg/kg/injection, schedule: Q01DX009 (ip), vehicle: saline with Tween-80
[6] = dose: 50.0 mg/kg/injection, schedule: Q01DX005 (ip), vehicle: saline with Tween-80
[7] = dose: 100.0 mg/kg/injection, schedule: Q01DX005 (ip), vehicle: saline with Tween-80
[8] = dose: 200.0 mg/kg/injection, schedule: Q01DX005 (ip), vehicle: saline with Tween-80
[9] = dose: 200.0 mg/kg/injection, schedule: Q01DX009 (ip), vehicle: saline with Tween-80
[10] = dose: 6.25 mg/kg/injection, schedule: Q01DX009 (ip), vehicle: saline
[11] = dose: 12.5 mg/kg/injection, schedule: Q01DX009 (ip), vehicle: saline
[12] = dose: 25.0 mg/kg/injection, schedule: Q01DX009 (ip), vehicle: saline
[13] = dose: 60.0 mg/kg/injection, schedule: Q01DX005 (ip), vehicle: saline with Tween-80
[14] = dose: 120.0 mg/kg/injection, schedule: Q01DX005 (ip), vehicle: saline with Tween-80
[15] = dose: 240.0 mg/kg/injection, schedule: Q01DX005 (ip), vehicle: saline with Tween-80
[16] = dose: 50.0 mg/kg/injection, schedule: Q04DX003 (ip), vehicle: saline
[17] = dose: 100.0 mg/kg/injection, schedule: Q04DX003 (ip), vehicle: saline
[18] = dose: 200.0 mg/kg/injection, schedule: Q04DX003 (ip), vehicle: saline
[19] = dose: 25.0 mg/kg/injection, schedule: Q04DX003 (ip), vehicle: saline

O=C(CC1=NC2NN(c3ccccc3)C(=O)C2=C1CC(=O)c1ccc(Cl)c(Cl)c1)c1ccc(Cl)c(Cl)c1 (configuration not stated)
T/C (dose: 60.0 mg/kg/injection, schedule: Q01DX005 (ip), vehicle: saline): 99 % of control
T/C (dose: 120.0 mg/kg/injection, schedule: Q01DX005 (ip), vehicle: saline): 100 % of control
T/C (dose: 240.0 mg/kg/injection, schedule: Q01DX005 (ip), vehicle: saline): 107 % of control

C=C(C)C(=O)NC(C)C(=O)O (configuration not stated)
T/C [1]: 106 % of control
T/C [2]: 100 % of control
T/C [3]: 100 % of control

Cn1nc(NC(=O)C(F)(F)F)c2ncc(-c3ccc(Cl)cc3)nc21
T/C (dose: 100.0 mg/kg/injection, schedule: Q04DX003 (ip), vehicle: saline with Tween-80): 100 % of control
T/C (dose: 200.0 mg/kg/injection, schedule: Q04DX003 (ip), vehicle: saline with Tween-80): 90 % of control
T/C (dose: 400.0 mg/kg/injection, schedule: Q04DX003 (ip), vehicle: saline with Tween-80): 90 % of control

CCCCCCCCCCCCCCCCCC(=O)CC(=O)C(F)(F)F (tested in a mixture with another compound)
T/C [4]: 91 % of control
T/C [5]: 92 % of control

NC(=O)/C(N=Nc1ccccc1)=N\Nc1ccccc1
T/C (dose: 6.25 mg/kg/injection, schedule: Q01DX005 (ip), vehicle: Klucel (hydroxypropylcellulose) (HPC)): 91 % of control
T/C (dose: 12.5 mg/kg/injection, schedule: Q01DX005 (ip), vehicle: Klucel (hydroxypropylcellulose) (HPC)): 91 % of control
T/C (dose: 25.0 mg/kg/injection, schedule: Q01DX005 (ip), vehicle: Klucel (hydroxypropylcellulose) (HPC)): 87 % of control

Cc1ccc(C#N)c(Cl)c1
T/C [1]: 100 % of control
T/C [2]: 100 % of control
T/C [3]: 106 % of control

CC(=NC(C)(C)C)N1CCOCC1
T/C (dose: 50.0 mg/kg/injection, schedule: Q01DX009 (ip), vehicle: saline + Tween-80 + alcohol): 101 % of control
T/C (dose: 100.0 mg/kg/injection, schedule: Q01DX009 (ip), vehicle: saline + Tween-80 + alcohol): 100 % of control
T/C (dose: 200.0 mg/kg/injection, schedule: Q01DX009 (ip), vehicle: saline + Tween-80 + alcohol): 88 % of control

CCCCCCCN(CCCCCCC)CC(O)c1cc2ccccc2c2cc(Br)ccc12 (configuration not stated)
T/C [6]: 109 % of control
T/C [7]: 104 % of control
T/C [8]: 99 % of control

COc1cc(CN)ccc1O
T/C [4]: 103 % of control
T/C [5]: 110 % of control
T/C [2]: 104 % of control
T/C [9]: 103 % of control
T/C [3]: 101 % of control
T/C (dose: 400.0 mg/kg/injection, schedule: Q01DX009 (ip), vehicle: saline with Tween-80): 104 % of control
T/C (dose: 400.0 mg/kg/injection, schedule: Q01DX009 (ip), vehicle: saline): 104 % of control
T/C (dose: 600.0 mg/kg/injection, schedule: Q01DX009 (ip), vehicle: saline): 107 % of control

Cn1c(=O)c2c(ncn2-c2ccc(N)cc2)n(C)c1=O
T/C (dose: 1.56 mg/kg/injection, schedule: Q01DX005 (ip), vehicle: water): 95 % of control
T/C (dose: 3.12 mg/kg/injection, schedule: Q01DX005 (ip), vehicle: water): 105 % of control
T/C (dose: 6.25 mg/kg/injection, schedule: Q01DX005 (ip), vehicle: other): 104 % of control
T/C (dose: 6.25 mg/kg/injection, schedule: Q01DX005 (ip), vehicle: water): 96 % of control
T/C (dose: 12.5 mg/kg/injection, schedule: Q01DX005 (ip), vehicle: other): 106 % of control
T/C (dose: 12.5 mg/kg/injection, schedule: Q01DX005 (ip), vehicle: water): 102 % of control
T/C (dose: 25.0 mg/kg/injection, schedule: Q01DX005 (ip), vehicle: other): 101 % of control
T/C (dose: 50.0 mg/kg/injection, schedule: Q01DX005 (ip), vehicle: water): 101 % of control

CCOC(=O)c1ccc(N2C(=O)C=CC2=O)cc1
T/C (dose: 3.12 mg/kg/injection, schedule: Q01DX009 (ip), vehicle: saline): 98 % of control
T/C [10]: 98 % of control
T/C [11]: 96 % of control

CC(Cl)C(Cl)(Cl)/C=C\[N+](=O)[O-] (configuration not stated)
T/C [1]: 103 % of control
T/C [2]: 102 % of control
T/C [3]: 98 % of control

CNC(=O)c1cc([N+](=O)[O-])cnc1NC
T/C (dose: 50.0 mg/kg/injection, schedule: Q01DX009 (ip), vehicle: Klucel (hydroxypropylcellulose) (HPC)): 95 % of control
T/C (dose: 100.0 mg/kg/injection, schedule: Q01DX009 (ip), vehicle: Klucel (hydroxypropylcellulose) (HPC)): 98 % of control
T/C (dose: 200.0 mg/kg/injection, schedule: Q01DX009 (ip), vehicle: Klucel (hydroxypropylcellulose) (HPC)): 92 % of control

C=C1C=[n+]2ccccc2=N1
T/C [12]: 93 % of control
T/C [1]: 96 % of control

O=[N+]([O-])C(CO)(CO)CC(F)(F)F
T/C (dose: 6.25 mg/kg/injection, schedule: Q04DX003 (ip), vehicle: saline): 100 % of control

Clc1ccc(COC(Cn2ccnc2)c2ccc(Cl)cc2Cl)c(Cl)c1 (configuration not stated)
T/C (dose: 9.37 mg/kg/injection, schedule: Q01DX009 (ip), vehicle: saline with Tween-80): 107 % of control
T/C (dose: 18.75 mg/kg/injection, schedule: Q01DX005 (ip), vehicle: saline with Tween-80): 99 % of control
T/C (dose: 37.5 mg/kg/injection, schedule: Q01DX005 (ip), vehicle: saline with Tween-80): 106 % of control
T/C (dose: 37.5 mg/kg/injection, schedule: Q01DX009 (ip), vehicle: saline with Tween-80): 104 % of control
T/C (dose: 75.0 mg/kg/injection, schedule: Q01DX005 (ip), vehicle: saline with Tween-80): 108 % of control
T/C (dose: 75.0 mg/kg/injection, schedule: Q01DX009 (ip), vehicle: saline with Tween-80): 112 % of control
T/C (dose: 150.0 mg/kg/injection, schedule: Q01DX005 (ip), vehicle: saline with Tween-80): 110 % of control
T/C (dose: 150.0 mg/kg/injection, schedule: Q01DX009 (ip), vehicle: saline with Tween-80): 107 % of control

CCC(=N\N=C(N)N)/C(C)=N\N=C(N)N
T/C [6]: 99 % of control
T/C [7]: 96 % of control

CN1CCN(C(=O)/C(=C/c2ccccc2)NC(=O)c2ccccc2)CC1
T/C [6]: 96 % of control
T/C [7]: 95 % of control
T/C [8]: 87 % of control

O=C(CCCCCCCCC(=O)NO)NO
T/C [13]: 96 % of control
T/C [14]: 100 % of control
T/C [15]: 100 % of control

CCOC(=O)NSCC
T/C [10]: 100 % of control
T/C [11]: 103 % of control
T/C [12]: 105 % of control

Cc1ccc(N2C(=O)c3ccccc3NC2(C)CCl)cc1 (configuration not stated)
T/C [4]: 103 % of control
T/C [5]: 103 % of control
T/C [9]: 112 % of control

CCn1c(S)c(N=NC(=S)c2ccc3ccccc3n2)c2ccccc21
T/C [16]: 98 % of control
T/C [17]: 96 % of control
T/C [18]: 103 % of control

CCOP(=O)(NN)OCC
T/C [19]: 114 % of control
T/C [16]: 97 % of control
T/C [17]: 106 % of control
T/C [18]: 103 % of control

CCOc1ccn(CC(=O)N2CCOCC2)c(=O)n1
T/C (dose: 100.0 mg/kg/injection, schedule: Q04DX003 (ip), vehicle: water): 90 % of control
T/C (dose: 200.0 mg/kg/injection, schedule: Q04DX003 (ip), vehicle: water): 100 % of control
T/C (dose: 400.0 mg/kg/injection, schedule: Q04DX003 (ip), vehicle: water): 90 % of control

COc1cc(C=Nc2cc(Cl)c(O)c(Cl)c2)ccc1N(CCCl)CCCl
T/C (dose: 12.0 mg/kg/injection, schedule: Q04DX003 (ip), vehicle: saline): 204 % of control
T/C (dose: 17.0 mg/kg/injection, schedule: Q04DX003 (ip), vehicle: saline): 263 % of control
T/C [19]: 100 % of control

Cc1cc(NC(=O)Nc2ccc(F)cc2)no1
T/C [13]: 94 % of control
T/C [14]: 93 % of control
T/C [15]: 96 % of control

Cc1ccc(C2c3c(c4ccccc4n3C(=O)c3ccccc3)C(=O)NN2C(=O)c2ccccc2)cc1 (configuration not stated)
T/C (dose: 50.0 mg/kg/injection, schedule: Q01DX005 (ip), vehicle: Klucel (hydroxypropylcellulose) (HPC)): 97 % of control
T/C (dose: 100.0 mg/kg/injection, schedule: Q01DX005 (ip), vehicle: Klucel (hydroxypropylcellulose) (HPC)): 90 % of control
T/C (dose: 200.0 mg/kg/injection, schedule: Q01DX005 (ip), vehicle: Klucel (hydroxypropylcellulose) (HPC)): 95 % of control
